In assay [1] the test system is P-388 (suspension culture of a lymphoid neoplasm from DBA/2 mouse). The experiment in a line: In vitro antitumor activity, P-388 cells. The class given is cell-based. Conditions: for IC50: Mus musculus, P388, 72 h, read-out: IC50 P-388. The text has this:
(§1) The antitumor activity has been deteced in vitro by culturing the tumor cells following the methodology described by Bergeron, et al.(2), and by Schroeder, et al. (6). Activity against several human tumors as leukaemia, colon carcinoma, NSC lung carcinoma, melanoma, and the like has been observed.
(§2) Biological activity: the antitumor cells employed have been P-388 (suspension culture of a lymphoid neoplasm from DBA/2 mouse), A-549 (monolayer culture of a human macrocytic lung carcinoma, HT-29 (monolayer culture of a human colon carcinoma), and MEL-28 (monolayer culture of a human melanoma), and the other indicated cell lines.
(§3) P-388 cells were seeded into 16 mm wells at 1×10^4 cells per well in 1 ml aliquots of MEM 5FCS containing the indicated concentration of drug. A separate set of cultures without drug were seeded as control of growth to ensure that cells remained in exponential phase of growth. All determinations were carried out duplicated. After three days of incubation at 37° in 10% CO2 atmosphere with 98% humidity, the wells were stained with 0.1% Crystal Violet. The IC50 was calculated by comparing the growth in wells with drug with the growth in control wells without the drug.
(§4) In Table 5 are presented the activity expressed as IC50 in mcg/ml

Assay [2] deals with MEL-28 (monolayer culture of a human melanoma). The experiment in a line: In vitro antitumor activity, MEL-28 cells. The class given is cell-based.
Description: as §1, §2, §3, §4

For assay [3], the system named is HT-29 (monolayer culture of a human colon carcinoma). The experiment in a line: In vitro antitumor activity, HT-29 cells. The class given is cell-based.
Description: as §1, §2, §3, §4

Assay [4] relates to several mammalian cancer cell lines. The experiment in a line: In vitro antitumor activity, several mammalian cancer cell lines. The class given is cell-based.
Description: as §1

The next assay has as its system CV1. The experiment in a line: In vitro activity, CV1 cells. The class given is cell-based. Conditions: Cercopithecidae, CV-1.
Description: as §1, §2, §3, §4

In assay [5] the test system is A-549 (monolayer culture of a human macrocytic lung carcinoma). Briefly: In vitro antitumor activity, A-549 cells. The class given is cell-based.
Description: as §1, §2, §3, §4

The subject of a further assay is P388MDR. Briefly: In vitro antitumor activity, P388MDR cells. The class given is cell-based, murine.
Description: as §1, §2, §3, §4

The mark [6] stands for this setting: three days of incubation, Crystal Violet.

Results on 5 compounds are retold here after patent publication US6395711B1, “Macrolides with antitumor activity” (priority 1997, dated 2002).

Converted amounts (≈) assume the structure as drawn. “Also recorded” adds a separate entry of the source. Where two headings read alike, the source gives them in different places.

The IC50 is the midpoint of a concentration-inhibition curve. As for `CCCC1(O)C(O)C(C)C/C=C/C=C/C(CC(C)O)CCC2OC3(CCC(C)C(C(C)C(O)CC)O3)C(C)C(OC(=O)/C=C/C(C)C(O)C(C)C(O)C(O)C(O)C(O)C1O)C2C` (centres unmarked) [IB-96212B], the IC50 in assay [1] (setting [6]) came out at 0.001 µg/mL (≈ 0.00113 µM); in assay [2] (Homo sapiens, SK-MEL-28; read-out: IC50 MEL-28), 1 µg/mL (≈ 1.13 µM); in assay [3] (Homo sapiens, HT-29; read-out: IC50 HT-29), 1.2 µg/mL (≈ 1.36 µM); in the assay with CV1 it was 0.001 µg/mL (≈ 0.00113 µM); in assay [5] (Homo sapiens, A549; read-out: IC50 A-549), 1 µg/mL (≈ 1.13 µM). In addition, in assay [4], the “antitumor activity against several mammalian cancer cell lines (in words)” value is on record as “activity comparable to the parent IB-96212; also recorded: good antitumor actvity”.

With `COc1cccc2c1C(=O)c1c(O)c3c(c(O)c1C2=O)C[C@@](O)(C(=O)CO)C[C@@H]3O[C@H]1C[C@H](N)[C@H](O)[C@H](C)O1` [adriamicin], the “IC50 P-388” value in assay [1] (setting [6]) is 0.02 µg/mL (≈ 0.0368 µM). Moreover, in assay [2], the “IC50 MEL-28” value is 0.02 µg/mL (≈ 0.0368 µM). Further, the “IC50 HT-29” value in assay [3] turned out to be 0.05 µg/mL (≈ 0.092 µM). Besides, the “IC50 P388MDR” value with P388MDR came to 1 µg/mL (≈ 1.84 µM). In assay [5], the “IC50 A-549” value is 0.002 µg/mL (≈ 0.00368 µM).

On to `N.N.[Cl][Pt][Cl]` [cis-platin], for which the “IC50 P-388” value in assay [1] (setting [6]) worked out at 2.5 µg/mL. The “IC50 MEL-28” value in assay [2] is 2.5 µg/mL. Besides, the “IC50 HT-29” value in assay [3] was 5 µg/mL. For the same compound, the “IC50 P388MDR” value in the assay on P388MDR stood at 2.5 µg/mL. Also, the “IC50 A-549” value in assay [5] is 2.5 µg/mL.

With `COc1cc([C@@H]2c3cc4c(cc3[C@@H](O[C@@H]3O[C@@H]5CO[C@@H](C)O[C@H]5[C@H](O)[C@H]3O)[C@H]3COC(=O)[C@H]23)OCO4)cc(OC)c1O` [etopoxide], in assay [1] (setting [6]), the “IC50 P-388” value was 0.1 µg/mL (≈ 0.17 µM). In assay [2], the “IC50 MEL-28” value was determined as 0.5 µg/mL (≈ 0.85 µM). Moreover, the “IC50 HT-29” value in assay [3] amounted to 1 µg/mL (≈ 1.7 µM). In addition, in the assay with P388MDR, the “IC50 P388MDR” value was found to be 10 µg/mL (≈ 17 µM). For the same compound, the “IC50 A-549” value in assay [5] amounted to 0.1 µg/mL (≈ 0.17 µM).

`CC(=O)O[C@H]1C(=O)[C@@]2(C)[C@H]([C@H](OC(=O)c3ccccc3)[C@]3(O)C[C@H](OC(=O)[C@H](O)[C@@H](NC(=O)c4ccccc4)c4ccccc4)C(C)=C1C3(C)C)[C@]1(OC(C)=O)CO[C@@H]1C[C@@H]2O` [taxol]: the 50% inhibitory concentration (IC50) in assay [1] was 0.2 µg/mL (≈ 0.234 µM); in assay [2] (Homo sapiens, SK-MEL-28, read-out: IC50 MEL-28) it was 0.002 µg/mL (≈ 0.00234 µM); in assay [3] (Homo sapiens, HT-29, read-out: IC50 HT-29), 0.002 µg/mL (≈ 0.00234 µM); in the assay with P388MDR (Mus musculus), above 2 µg/mL; in assay [5] (Homo sapiens, A549, read-out: IC50 A-549), 0.002 µg/mL (≈ 0.00234 µM).
